Experiments:
[1] = tested on: ATXN3 transcripts containing exon 4; assay: ATXN3 Quantitative Splicing Assay (qPCR, E4E5 primers/probe); type: cell-based, Human; details: SK-N-MC cells, treated with compounds for 24 h, qPCR of transcripts containing exon 4
Protocol: Human neuroblastoma SK-N-MC cells were plated in 384-well plates at 20,000 cells/well. Twenty-four hours after plating, cells were treated with compounds for 24 h at appropriate concentrations ranging from 30.M to 0.6 nM (0.300 DMS0). Treated cells were lysed in 15 μL of lysis buffer, and cDNA was synthesized using the Fast Advanced Cells-to-Ct kit. Two μL of each cDNA was used in qPCR reactions to confirm the exon 4 skipped transcripts of ATXN3. A second set of primers/probe E4E5 was used to detect the transcripts containing exon 4. The third set of primers/probe E8E9 was used to detect total gene level of ATXN3. The qPCR reactions were prepared in 384-well plates in 10 μL volume, using TaqMan™ Fast Advanced Master Mix with primers and probes shown in the table below. Reactions were run in a Quant Studio 6 qPCR instrument with default settings.
The primers and probes are listed below in Table 4.

total ATXN3 protein = assay: ATXN3 total protein assay (Mesoscale Discovery); type: cell-based, Human; details: SK-N-MC cells, 48 hours incubation, MSD assay
Protocol: Human neuroblastoma SK-N-MC cells were seeded at 10,000 cells/well in 384 well plates one day prior to compound treatment. The concentrations of compounds were tested at appropriate doses ranging from 30 μM to 0.6 nM. After incubation for 48 hours, the cells were lysed with 25 μL of lysis buffer containing protease inhibitors, and total ATXN3 protein levels were assessed by Mesoscale Discovery (MSD) assay developed with one pair of anti-ATXN3 antibodies. The capture and detect antibodies were raised in mouse and rabbit respectively. Anti-rabbit MSD-ST antibody was used for secondary antibody. ATXN3 recombinant protein was used for standards. The readouts were captured with 35 μL of MSD read buffer and multi-array 384-well high binding plates.

ATXN3-HiBiT protein = assay: ATXN3 HiBiT assay (Nano Glo HiBiT luminescence); type: cell-based; details: Kelly-ATXN3-HiBiT cells, luminescence read out 48 h after addition of the compound
Description: To monitor ATXN3 protein levels by luminescence, a Kelly-ATXN3-HiBiT cell line with homozygous knock-in of HiBiT at the C-terminus of the endogenous ATXN3 gene was used (knock-in of the HiBiT-tag coding sequence SEQ ID NO. 14: 5′[…]3′ into exon 11 of ATXN3 -position 1114 of ATXN3 RefSeq NM_004993.6). Manipulations of the Kelly-ATXN3-HiBiT cell line that result in downregulation of the ATXN3-HiBiT protein (through modulation of ATXN3-HiBiT pre-mRNA splicing) can be followed by monitoring the luminescence signal of the HiBiT tag using the Nano Glo HiBiT Lytic Detection System (Promega, #N3050). Kelly-ATXN3-HiBiT cells were maintained in RPMI 1640 w/Glutamax (Gibco, #61870010), 10% FBS (Sigma Aldrich, #F8687), 1% Penicillin/Streptomycin (Gibco, #15140-122) at 37° C., 5% CO2. To assess HiBiT-luminescence signal upon compound treatment, 2000 Kelly-ATXN3-HiBiT cells were seeded per well in 384 plate format. Compounds were added 24 h after seeding. ATXN3-HiBiT-luminescence signal was read out 48 h after addition of the compound using the Nano Glo HiBiT Lytic Detection System (Promega, #N3050) according to the manufacturer's instructions. To control for cell viability, an identically prepared sister plate was read out with the CellTiter-Glo® 2.0 Assay (Promega, #G9243) according to the manufacturer's instructions. Fold changes of ATXN3-HiBiT-luminescence and of CellTiter-Glo viability signals were calculated relative to a DMSO control condition.

IC50 ([1]; Homo sapiens) [nM]	IC50 (total ATXN3 protein) [nM]	EC50 (ATXN3-HiBiT protein) [nM]	IC50 [1] [nM]	Molecule
0.01 to 100	0.01 to 100	0.01 to 100		CC#Cc1c(C[C@@H](N)[C@H](C)F)oc2c(NCc3cccs3)cc(Cl)nc12 [Compound 6, 2-[(2R,3S)-2-amino-3-fluorobutyl]-5-chloro-3-(1-propynyl)-7-thenylamino-1-oxa-4-azaindene]
		0.01 to 100		[2H]C([2H])(c1oc2c(NCc3cccs3)cc(Cl)nc2c1C#CC)[C@@H](N)CF [Compound 45, 2-[(R)-2-amino-3-fluoro(1,1- ^2H2)propyl]-5-chloro-3-(1-propynyl)-7-thenylamino-1-oxa-4-azaindene]
		10000 to 40000		CC#Cc1c(C[C@@H](N)[C@H](C)F)oc2c(NCc3c(F)cccc3F)cc(Cl)nc12 [Compound 14, 2-[(2R,3S)-2-amino-3-fluorobutyl]-5-chloro-7-{[(2,6-difluorophenyl)methyl]amino}-3-(1-propynyl)-1-oxa-4-azaindene]
		0.01 to 100		[2H]C([2H])([2H])OCC[C@H](N)Cc1oc2c(NCc3cccs3)cc(Cl)nc2c1C#CC [Compound 42, 2-[(S)-2-amino-4-(^2H3)methoxybutyl]-5-chloro-3-(1-propynyl)-7-thenylamino-1-oxa-4-azaindene]
0.01 to 100				CC#Cc1c([C@H]2CC(F)(F)CC[C@@H]2N)oc2c(NCc3cccs3)cc(Cl)nc12 [Compound 52, 2-[(1S,2S)-2-amino-5,5-difluorocyclohexyl]-5-chloro-3-(1-propynyl)-7-thenylamino-1-oxa-4-azaindene]
0.01 to 100	101 to 500	0.01 to 100		CC#Cc1c(C[C@@H](N)[C@H](C)F)oc2c(NCc3nccs3)cc(Cl)nc12 [Compound 12, 2-[(2R,3S)-2-amino-3-fluorobutyl]-5-chloro-3-(1-propynyl)-7-{[(1,3-thiazol-2-yl)methyl]amino}-1-oxa-4-azaindene]
10000 to 40000	10000 to 40000	5000 to 10000		CC#Cc1cc(NCc2cccs2)c2oc(C[C@@H](N)C3CC3)c(C#CC)c2n1 [Compound 25, 2-[(R)-2-amino-2-cyclopropylethyl]-3,5-bis(1-propynyl)-7-thenylamino-1-oxa-4-azaindene]
0.01 to 100	0.01 to 100	0.01 to 100		CC#Cc1c(C[C@@H](N)[C@H](C)F)oc2c(NCc3ccco3)nc(Cl)nc12 [Compound 41, 2-[(2R,3S)-2-amino-3-fluorobutyl]-5-chloro-7-(furfurylamino)-3-(1-propynyl)-1-oxa-4,6-diazaindene]
501 to 5000	501 to 5000	501 to 5000		CC#Cc1c(C[C@@H](N)C2CC(F)(F)C2)oc2c(NCc3cccs3)cc(Cl)nc12 [Compound 15, 2-[(R)-2-amino-2-(3,3-difluorocyclobutyl)ethyl]-5-chloro-3-(1-propynyl)-7-thenylamino-1-oxa-4-azaindene]
501 to 5000				CC#Cc1c(C[C@@H](N)[C@H](C)F)oc2c(NCc3cccs3)c(F)c(Cl)nc12 [Compound 37, 2-[(2R,3S)-2-amino-3-fluorobutyl]-5-chloro-6-fluoro-3-(1-propynyl)-7-thenylamino-1-oxa-4-azaindene]
101 to 500	501 to 5000	101 to 500		CC#Cc1c(C(F)(F)[C@H](C)N)oc2c(NCc3cccs3)nc(Cl)nc12 [Compound 33, 2-[(S)-2-amino-1,1-difluoropropyl]-5-chloro-3-(1-propynyl)-7-thenylamino-1-oxa-4,6-diazaindene]
		0.01 to 100		[2H]C([2H])([2H])OC[C@H](N)Cc1oc2c(NC([2H])([2H])c3cccs3)cc(Cl)nc2c1C#CC [Compound 40, 2-[(R)-2-amino-3-(^2H3)methoxypropyl]-5-chloro-3-(1-propynyl)-7-{[(2-thienyl)(^2H2)methyl]amino}-1-oxa-4-azaindene]
501 to 5000				CC#Cc1c(C2CCC2N)oc2c(NCc3cccs3)cc(Cl)nc12 (single isomer, unassigned) [Compound 50, 2-(2-aminocyclobutyl)-5-chloro-3-(prop-1-yn-1-yl)-N-(thiophen-2-ylmethyl)furo[3,2-b]pyridin-7-amine]
		0.01 to 100		[2H]C([2H])([2H])OC[C@H](N)Cc1oc2c(NCc3cccs3)cc(Cl)nc2c1C#CC [Compound 35, 2-[2-amino-3-(^2H3)methoxypropyl]-5-chloro-3-(1-propynyl)-7-thenylamino-1-oxa-4-azaindene]
0.01 to 100				CC#Cc1c([C@H]2CCCC[C@@H]2N)oc2c(NCc3cccs3)cc(Cl)nc12 [Compound 49, 2-[(1S,2S)-2-aminocyclohexyl]-5-chloro-3-(1-propynyl)-7-thenylamino-1-oxa-4-azaindene]
		0.01 to 100		CC#Cc1c(C[C@@H](N)CCOC(F)F)oc2c(NCc3cccs3)cc(Cl)nc12 [Compound 31, 2-[(S)-2-amino-4-difluoromethoxybutyl]-5-chloro-3-(1-propynyl)-7-thenylamino-1-oxa-4-azaindene]
		0.01 to 100		CC#Cc1c(C[C@@H](N)CO)oc2c(NCc3cccs3)cc(Cl)nc12 [Compound 34, (R)-2-amino-3-[5-chloro-3-(1-propynyl)-7-thenylamino-1-oxa-4-aza-2-indenyl]-1-propanol]
		501 to 5000		CC#Cc1c(C[C@@H](N)[C@H](C)F)oc2c(NCc3ccccc3F)cc(Cl)nc12 [Compound 13, 2-[(2R,3S)-2-amino-3-fluorobutyl]-5-chloro-7-{[(o-fluorophenyl)methyl]amino}-3-(1-propynyl)-1-oxa-4-azaindene]
		0.01 to 100		[2H]C([2H])([2H])OC([2H])([2H])[C@H](N)Cc1oc2c(NCc3cccs3)cc(Cl)nc2c1C#CC [Compound 47, 2-[(R)-2-amino-3-(^2H3)methoxy(3,3-^2H2)propyl]-5-chloro-3-(1-propynyl)-7-thenylamino-1-oxa-4-azaindene]
			501 to 5000	CC#Cc1c(C2CCC2N)oc2c(NCc3cccs3)cc(Cl)nc12 (single isomer, unassigned) [Compound 51, 2-(2-aminocyclobutyl)-5-chloro-3-(prop-1-yn-1-yl)-N-(thiophen-2-ylmethyl)furo[3,2-b]pyridin-7-amine]
		0.01 to 100		2-[(R)-2-amino-3-methoxy(1,1- ^2H2)propyl]-5-chloro-3-(1- propynyl)-7-thenylamino-1-oxa-4- azaindene [Compound 44]
		0.01 to 100		[2H]C([2H])(OC(F)F)[C@H](N)Cc1oc2c(NCc3cccs3)cc(Cl)nc2c1C#CC [Compound 48, 2-[(R)-2-amino-3-difluoromethoxy(3,3-^2H2)propyl]-5-chloro-3-(1-propynyl)-7-thenylamino-1-oxa-4-azaindene]

Molecule	IC50 ([1]; Homo sapiens) [nM]	IC50 (total ATXN3 protein) [nM]	EC50 (ATXN3-HiBiT protein) [nM]	IC50 [1] [nM]
C[C@H](N)Cc1oc2c(NCc3cccs3)cc(Cl)nc2c1C#CCO [Compound 26, 3-{2-[(S)-2-aminopropyl]-5-chloro-7-thenylamino-1-oxa-4-aza-3-indenyl}-2-propyn-1-ol]	101 to 500	501 to 5000	101 to 500	
[2H]C([2H])(c1oc2c(NCc3cccs3)cc(Cl)nc2c1C#CC)[C@H](C)N [Compound 43, 2-[(S)-2-amino(1,1-^2H2)propyl]-5-chloro-3-(1-propynyl)-7-thenylamino-1-oxa-4-azaindene]			0.01 to 100	
C[C@H](N)Cc1oc2c(NCc3cccs3)cc(Cl)nc2c1C#CCF [Compound 19, 2-[(S)-2-aminopropyl]-5-chloro-3-(3-fluoro-1-propynyl)-7-thenylamino-1-oxa-4-azaindene]	101 to 500	101 to 500	101 to 500	

— US20260027118A1, “COMPOSITIONS USEFUL FOR MODULATING SPLICING” (Skyhawk Therapeutics, Inc., priority 2022, published 2026)
